Laboratory results taken from US9192568B2, “Formulations comprising jorumycin-, renieramycin-, safracin- or saframycin-related compounds for treating proliferative diseases” (Pharma Mar, S.A., priority 2005, dated 2015).

Columns and labels:
Aqueous solubility = format: physicochemical
Description: These characteristics challenge the ordinary skills and conventional methodologies in this technology, particularly when it comes to the preparation of formulations of these compounds that are to be readily used for medical purposes. Such uses preferably rely on formulations whose characteristics include one or more of the following: biocompatibility, stability under ambient conditions, or under conditions that are as near to ambient conditions as possible, with a shelf life that is as long as possible, and easy reconstitutability to form reconstituted solutions that are as stable under ambient, or near ambient conditions, for as long as possible.

[1] = tested on: solid and non-solid tumor cell lines; settings: cited from earlier work
[2] = tested on: xenografted human cell lines in mice, such as breast and prostate; settings: several xenografted human cell lines in mice; cited from earlier work

Row | Structure (SMILES) | aqueous solubility (Aqueous solubility) | in vitro activity [1] | in vivo activity [2]
1 | COc1c(C)cc2c(c1O)[C@@H]1[C@@H]3Cc4c(OC(C)=O)c(C)c5c(c4[C@H](CNC(=O)/C=C/c4cccc(C(F)(F)F)c4)N3[C@@H](O)[C@H](C2)N1C)OCO5 [PM00104] | limited aqueous solubility | significant in vitro activity | significant in vivo activity
2 | COc1c(C)cc2c(c1O)[C@@H]1[C@@H]3Cc4c(OC(C)=O)c(C)c5c(c4[C@H](COC(=O)/C=C/c4ccccc4)N3[C@@H](O)[C@H](C2)N1C)OCO5 [PM00121] | limited aqueous solubility |  | 
